Our source for the TGI values is PubChem BioAssay (NCI).

Holding throughout (experiment): inhibition of tumour cell growth, NCI panel, 48 h
The test system of assay [1] is SF-539 CNS.
The subject of assay [2] is RXF 393 renal.
The subject of assay [3] is TK-10 renal.

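The compound was tested at five concentrations on cells cultured in 96-well plates, with a 48-hour exposure period. At the TGI there is no net growth.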

On to `CC(NC(NC(C)C12CC3CC(CC(C3)C1)C2)=C(C(Cl)=C(Cl)Cl)[N+](=O)[O-])C12CC3CC(CC(C3)C1)C2` (stereo not drawn), for which the results for the TGI in assay [1], in assay [2] and in assay [3] were 69 µM, 62.9 µM and above 100 µM, respectively.
On to `CC[C@@H](/C=C\CCC1(C[C@@H](N)CCC=C(C)C)OCCO1)O[Si](C(C)C)(C(C)C)C(C)C`, for which the values for the TGI in assay [1], in assay [2] and in assay [3] were 34.1 µM, 37.3 µM and 31.2 µM, respectively.
Turning to `COc1ccc(-c2nc(-c3cnccn3)n(COCCO)n2)cc1`, the TGI in assay [1], in assay [2] and in assay [3] was above 100 µM throughout.
Consider `O=C(NNC(=S)NCc1ccccc1)C12CC3CC(CC(C3)C1)C2`, for which the TGI in assay [1], in assay [2] and in assay [3] was above 100 µM throughout.
Turning to `COc1ccc(N2C(=O)/C(=C\c3cccc(Oc4ccccc4)c3)SC2c2ccccc2)cc1` (stereo not drawn), the TGI is 55.9 µM in assay [1], above 100 µM in assay [2] and above 100 µM in assay [3].
In the case of `O=[N+]([O-])c1sc2ccc(Cl)cc2c1Nc1ccc(Cl)cc1`, the TGI in assay [1], in assay [2] and in assay [3] was above 100 µM each time.
With `CN(C)c1ccc(C2ON=C(c3ccccc3)N2C23CC4CC(CC(C4)C2)C3)cc1` (stereo not drawn), the TGI in assay [1], in assay [2] and in assay [3] was above 10 µM throughout.
Regarding `COC(=O)c1c2c(cc3c1CC1(Cc4cc5c(cc4C1)CCC5)C3)CCC2`, the TGI in assay [1], in assay [2] and in assay [3] was above 100 µM each time.
As for `CC(Oc1ccccc1Cl)C(=O)NN1C(=O)CSC1c1ccc(Cl)cc1` (stereo not drawn), the TGI in assay [1] was found to be 65.3 µM; in assay [2], 33.4 µM; in assay [3], 55.9 µM.
The like results for `N#Cc1c(-c2ccccc2)c(C#N)c(=O)n(C2OC(CO)C(O)C(O)C2O)c1S` (stereo not drawn) were, in that order, above 100 µM, above 100 µM and above 100 µM.
Turning to `O=S(=O)(OI(O)CC(F)(F)F)C(F)(F)F`, the TGI in assay [1], in assay [2] and in assay [3] was above 100 µM in each case.
As to `CC(=O)Oc1c(C)c2c(c3ccccc13)OC(C)(C)C2`, the TGI in assay [1] came out at 37.3 µM; in assay [2], 35.9 µM; in assay [3], 32.9 µM.
Regarding `O=C(/C=C/c1ccc(O)c(O)c1)NCCc1ccc(-c2ccccc2)cc1`, the TGI in assay [1] was above 100 µM; in assay [2], above 100 µM; in assay [3], 63.3 µM.
Take `CCCCCCCCCc1c(O)c(O)c(CCCCCCCCC)c(CCCCCCCCC)c1CCCCCCCCC`: the TGI in assay [1], in assay [2] and in assay [3] was above 100 µM each time.
In the case of `O=C(CN(c1ccc(S(=O)(=O)O)cc1)c1ccc(S(=O)(=O)O)cc1)Nn1cnc2ccc(S(=O)(=O)N(c3ccc(S(=O)(=O)O)cc3)c3ccc(S(=O)(=O)O)cc3)cc2c1=O`, the TGI in assay [1], in assay [2] and in assay [3] was above 100 µM in each case.
Take `COC1(CC[C@H](C)COC2OC(CO)C(O)C(O)C2O)O[C@H]2C[C@H]3[C@@H]4CC=C5C[C@@H](OC6OC(CO)C(O)C(OC7OC(CO)C(O)C(O)C7O)C6OC6OC(C)C(O)C(O)C6O)CC[C@]5(C)[C@H]4CC[C@]3(C)[C@H]2[C@@H]1C` (stereo partly drawn): the TGI in assay [1] is 4.85 µM; in assay [2], 16.3 µM; in assay [3], above 69.7 µM.
The corresponding values for `O=C(O)C12C3CCC(O3)C1(C(=O)O)C1CCC2O1` (stereo not drawn) are above 100 µM, above 100 µM and above 100 µM.
For `COC(=O)[C@@H]1Cc2cc(O)c(O)cc2C2(CCN(C)CC2)O1`, the TGI in assay [1], in assay [2] and in assay [3] was above 10 µM throughout.
On to `COC(=O)C1C(C(=O)OC)C1(Br)CBr` (stereo not drawn), for which the results for the TGI in assay [1], in assay [2] and in assay [3] were above 100 µM, 41.6 µM and above 100 µM, respectively.
As to `Cc1c(-c2ccccc2)c(C#N)c2nnn(-c3cccc(Cl)c3)c(=O)n12`, the TGI in assay [1], in assay [2] and in assay [3] was above 100 µM throughout.
In the case of `NC(=O)C(Nc1ccc(Cl)cc1)c1cc2cc(Br)ccc2nc1Cl` (stereo not drawn), the TGI in assay [1] was above 50 µM; in assay [2], above 50 µM; in assay [3] it was 47.7 µM.
In the case of `COc1ccc(Nc2nc3ccccc3nc2C(=O)O)cc1OC`, the TGI in assay [1], in assay [2] and in assay [3] was above 100 µM each time.
As to `COc1ncnc2c1cnn2Cc1cn(CCCCO)nn1`, the TGI in assay [1], in assay [2] and in assay [3] was above 100 µM in each case.
As for `O=C1C(Cl)=C(N2CCN(c3ccccn3)CC2)C(=O)c2ncccc21`, the figures for the TGI in assay [1], in assay [2] and in assay [3] were 3.94 µM, 3.7 µM and 9.75 µM, respectively.
Consider `Cn1c(=O)oc2cc(Br)ccc21`, for which the TGI in assay [1], in assay [2] and in assay [3] was above 100 µM throughout.
`O=C(CCOS(=O)(=O)CF)N1CCN(C(=O)CCOS(=O)(=O)CF)CC1`: the TGI in assay [1], in assay [2] and in assay [3] was above 100 µM throughout.
For `CN(C)Cc1cc(N=Nc2ccc(Cl)cc2)ccc1O`, the TGI in assay [1] amounted to 34.8 µM; in assay [2], 27.9 µM; in assay [3], 28.4 µM.
As to `CCC1=NC(C(F)(F)F)(C(F)(F)F)N=C(/N=C(/N)N(C)C(C(C)C)P(=O)(OC(C)C)OC(C)C)O1` (stereo not drawn), the TGI in assay [1], in assay [2] and in assay [3] was above 100 µM throughout.
With `CC(=O)Oc1c2oc3cc(O)c(O)cc3c2c(OC(C)=O)c2oc3cc(O)c(O)cc3c12`, the TGI in assay [1] turned out to be 53.3 µM; in assay [2], 32.6 µM; in assay [3], 32.9 µM.
Take `O=C1CN(c2ccc(Cl)cc2)C(=O)CN1NCNN1CC(=O)N(c2ccc(Cl)cc2)CC1=O`: the TGI in assay [1], in assay [2] and in assay [3] was above 100 µM throughout.
In the case of `O=[N+]([O-])c1nccn1CCCNCCCn1ccnc1[N+](=O)[O-]`, the TGI in assay [1], in assay [2] and in assay [3] was above 100 µM each time.
